Reference: ChEMBL document CHEMBL4476867, “Hydroxy formamide derivatives and their use” (2016)

What was measured:
Type in all cases: cell-based
[1] = target: T1, Bone morphogenetic protein 1 (Homo sapiens, UniProt P13497); experiment: Inhibition of C-terminal FLAG-6x-His epitope tagged and N-terminal human RAGE signal sequence tagged human BMP1 (23 to 721 amino acids) expressed in CHO-E1 cells pre-incubated for 10 mins before promyostatin peptide substrate addition and measured after 30 mins using 50 nM BMP1 by FRET based assay
T1 sequence (P13497 whole entry): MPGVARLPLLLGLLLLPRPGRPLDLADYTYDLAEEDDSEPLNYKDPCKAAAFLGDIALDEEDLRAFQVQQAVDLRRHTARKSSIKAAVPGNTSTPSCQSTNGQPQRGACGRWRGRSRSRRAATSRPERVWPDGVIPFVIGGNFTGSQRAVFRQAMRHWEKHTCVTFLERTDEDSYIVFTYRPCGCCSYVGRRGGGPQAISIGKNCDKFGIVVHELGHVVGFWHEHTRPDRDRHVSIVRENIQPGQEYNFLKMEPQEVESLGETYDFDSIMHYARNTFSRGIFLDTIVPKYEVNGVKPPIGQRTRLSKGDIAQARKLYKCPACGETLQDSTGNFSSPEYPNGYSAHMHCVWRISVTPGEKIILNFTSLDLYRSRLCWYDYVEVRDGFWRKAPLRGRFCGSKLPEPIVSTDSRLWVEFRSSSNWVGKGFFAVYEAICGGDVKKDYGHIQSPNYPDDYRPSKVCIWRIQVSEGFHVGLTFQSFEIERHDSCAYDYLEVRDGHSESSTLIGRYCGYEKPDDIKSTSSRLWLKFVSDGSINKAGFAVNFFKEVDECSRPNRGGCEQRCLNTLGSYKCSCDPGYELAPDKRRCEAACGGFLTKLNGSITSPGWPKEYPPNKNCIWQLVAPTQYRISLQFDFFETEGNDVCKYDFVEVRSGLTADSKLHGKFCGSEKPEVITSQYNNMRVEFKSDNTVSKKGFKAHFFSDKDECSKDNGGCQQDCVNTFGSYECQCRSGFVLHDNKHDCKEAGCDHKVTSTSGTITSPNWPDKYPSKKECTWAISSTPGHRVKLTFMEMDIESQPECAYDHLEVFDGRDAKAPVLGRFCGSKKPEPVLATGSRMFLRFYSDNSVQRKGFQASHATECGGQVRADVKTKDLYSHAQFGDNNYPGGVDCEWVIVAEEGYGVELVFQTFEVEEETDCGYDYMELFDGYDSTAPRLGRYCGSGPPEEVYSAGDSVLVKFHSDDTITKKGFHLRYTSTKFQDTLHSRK

[2] = target: T1, Bone morphogenetic protein 1; experiment: Inhibition of C-terminal FLAG-6x-His epitope tagged and N-terminal human RAGE signal sequence tagged human BMP1 (23 to 721 amino acids) expressed in CHO-E1 cells pre-incubated for 10 mins before promyostatin peptide substrate addition and measured after 60 mins using 0.5 nM BMP1 by FRET based assay
Tolloid-like protein 1 = Tolloid-like protein 1 (Homo sapiens, UniProt O43897, I156V/N221S/V284A); experiment: Inhibition of recombinant human TLL1 I156V/N221S/V284A mutant expressed in CHOE1A cells pre-incubated for 10 mins before promyostatin peptide substrate addition and measured after 60 mins by FRET based assay
Tolloid-like protein 2 = target: T2, Tolloid-like protein 2 (Homo sapiens, UniProt Q9Y6L7); experiment: Inhibition of C-terminal Avi-6x-His epitope tagged and N-terminal human RAGE signal sequence tagged recombinant human TLL2 (26 to 1015 amino acids) expressed in CHOE1A cells incubated for 60 mins with promyostatin peptide substrate by FRET based assay
T2 sequence (Q9Y6L7 whole entry): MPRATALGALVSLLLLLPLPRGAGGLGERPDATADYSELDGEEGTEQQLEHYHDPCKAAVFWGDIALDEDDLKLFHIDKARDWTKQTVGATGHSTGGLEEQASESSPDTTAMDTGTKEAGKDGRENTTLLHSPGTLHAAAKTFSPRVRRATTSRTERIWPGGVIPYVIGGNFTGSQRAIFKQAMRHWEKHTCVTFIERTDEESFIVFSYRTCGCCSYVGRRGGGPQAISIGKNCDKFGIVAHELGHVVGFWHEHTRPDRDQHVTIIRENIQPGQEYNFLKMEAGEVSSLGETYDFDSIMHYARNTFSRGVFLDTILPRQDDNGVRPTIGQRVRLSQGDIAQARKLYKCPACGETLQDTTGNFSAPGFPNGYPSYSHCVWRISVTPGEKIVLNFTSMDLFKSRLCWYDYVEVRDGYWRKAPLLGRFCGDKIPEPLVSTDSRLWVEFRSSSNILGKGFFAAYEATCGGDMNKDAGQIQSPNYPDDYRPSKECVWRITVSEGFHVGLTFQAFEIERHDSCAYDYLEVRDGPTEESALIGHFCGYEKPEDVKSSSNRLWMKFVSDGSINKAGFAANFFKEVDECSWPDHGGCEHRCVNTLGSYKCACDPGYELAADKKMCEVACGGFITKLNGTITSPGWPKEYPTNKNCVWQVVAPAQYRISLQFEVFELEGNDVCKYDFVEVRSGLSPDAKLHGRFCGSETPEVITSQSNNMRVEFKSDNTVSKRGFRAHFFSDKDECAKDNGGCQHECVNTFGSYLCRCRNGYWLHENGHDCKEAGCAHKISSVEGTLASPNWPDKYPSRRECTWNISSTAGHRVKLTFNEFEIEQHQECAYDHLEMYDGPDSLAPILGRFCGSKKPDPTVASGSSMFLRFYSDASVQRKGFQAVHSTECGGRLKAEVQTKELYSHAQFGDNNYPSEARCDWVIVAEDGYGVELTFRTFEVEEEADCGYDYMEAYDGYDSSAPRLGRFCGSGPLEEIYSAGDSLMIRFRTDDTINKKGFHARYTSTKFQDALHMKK

Tolloid-like protein 1, sequence (O43897 148-1013 I156V/N221S/V284A limits assumed): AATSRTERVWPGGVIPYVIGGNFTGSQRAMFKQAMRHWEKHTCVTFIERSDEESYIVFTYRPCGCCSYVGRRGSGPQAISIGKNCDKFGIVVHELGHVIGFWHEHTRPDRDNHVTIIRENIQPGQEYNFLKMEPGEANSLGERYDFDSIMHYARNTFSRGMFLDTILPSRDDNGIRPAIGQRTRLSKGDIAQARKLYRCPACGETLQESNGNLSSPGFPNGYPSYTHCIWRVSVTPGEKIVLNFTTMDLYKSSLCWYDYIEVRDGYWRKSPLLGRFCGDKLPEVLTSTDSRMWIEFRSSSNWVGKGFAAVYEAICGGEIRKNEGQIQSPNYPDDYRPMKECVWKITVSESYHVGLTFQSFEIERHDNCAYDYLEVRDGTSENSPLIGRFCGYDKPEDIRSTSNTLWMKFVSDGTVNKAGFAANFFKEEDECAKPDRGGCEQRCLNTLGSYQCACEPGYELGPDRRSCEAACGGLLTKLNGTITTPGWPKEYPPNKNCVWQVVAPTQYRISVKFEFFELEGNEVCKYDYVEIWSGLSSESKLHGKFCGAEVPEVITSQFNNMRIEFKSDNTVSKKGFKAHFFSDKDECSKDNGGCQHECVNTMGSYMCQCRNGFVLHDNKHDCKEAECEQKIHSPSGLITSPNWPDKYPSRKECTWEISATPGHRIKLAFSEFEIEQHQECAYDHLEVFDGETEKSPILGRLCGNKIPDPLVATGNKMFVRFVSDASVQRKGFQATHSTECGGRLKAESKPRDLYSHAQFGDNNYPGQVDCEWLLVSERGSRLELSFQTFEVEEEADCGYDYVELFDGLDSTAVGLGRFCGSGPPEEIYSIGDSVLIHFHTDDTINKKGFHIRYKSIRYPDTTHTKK

`CCCCC[C@H](CN(O)C=O)C(=O)NCNC(=O)c1ccc(-c2cccc(OC)c2)o1` was tested, and the IC50 [1] was under 200 nM, the IC50 [2] was under 126 nM and the IC50 (Tolloid-like protein 1) was under 398 nM. The IC50 (Tolloid-like protein 2) was under 794 nM.
Work on `CCCCC[C@H](CN(O)C=O)C(=O)NCNC(=O)c1ccc(-c2ccccc2OC)o1` yielded an IC50 [1] of under 200 nM, an IC50 [2] of under 126 nM and an IC50 (Tolloid-like protein 1) of under 398 nM. The IC50 (Tolloid-like protein 2) was under 794 nM.
Molecule `CCCCC[C@@H](C(=O)NCNC(=O)C1CCC(c2ccccc2)O1)[C@@H](CC)N(O)C=O` (stereo not given in full) has an IC50 [1] of under 200 nM, an IC50 [2] of under 126 nM and an IC50 (Tolloid-like protein 1) of under 398 nM. The IC50 (Tolloid-like protein 2) was under 794 nM.
With `CCCCC[C@H](CN(O)C=O)C(=O)NCNC(=O)c1ccc(-c2ccc(F)c(OC)c2)o1` the IC50 [1] was under 200 nM, the IC50 [2] was under 126 nM and the IC50 (Tolloid-like protein 1) was under 398 nM. The IC50 (Tolloid-like protein 2) was under 794 nM.
`CCCCC[C@H](CN(O)C=O)C(=O)NCNC(=O)c1ccc(-c2cccc(C(=O)OC(C)(C)C)c2)o1` was tested, and the IC50 [1] was under 200 nM, the IC50 [2] was under 126 nM and the IC50 (Tolloid-like protein 1) was under 398 nM. It also gave an IC50 (Tolloid-like protein 2) of under 794 nM.
Work on `O=CN(O)C[C@@H](CCc1ccccc1)C(=O)NCNC(=O)c1ccc(-c2ccccc2)o1` yielded an IC50 [1] of under 200 nM, an IC50 [2] of under 126 nM and an IC50 (Tolloid-like protein 1) of under 398 nM. For the same molecule, the IC50 (Tolloid-like protein 2) was under 794 nM.
With `CCCCC[C@H](CN(O)C=O)C(=O)NCNC(=O)c1ccc(-c2cccc(P(C)(=O)OCC)c2)o1` (stereo not given in full) the IC50 [1] was under 200 nM, the IC50 [2] was under 126 nM and the IC50 (Tolloid-like protein 1) was under 398 nM. For the same molecule, the IC50 (Tolloid-like protein 2) was under 794 nM.
`CCCCC[C@H](CN(O)C=O)C(=O)NCNC(=O)c1ccc(-c2cccc(S(=O)(=O)N(C)C)c2)o1` gave an IC50 [1] of under 200 nM, an IC50 [2] of under 126 nM and an IC50 (Tolloid-like protein 1) of under 398 nM. For the same molecule, the IC50 (Tolloid-like protein 2) was under 794 nM.
With `CCCCC[C@H](CN(O)C=O)C(=O)NCNC(=O)c1ccc(-c2ccc3cn(C)nc3c2)o1` the IC50 [1] was under 200 nM, the IC50 [2] was under 126 nM and the IC50 (Tolloid-like protein 1) was under 398 nM. It also gave an IC50 (Tolloid-like protein 2) of under 794 nM.
`CCCCC[C@@H](C(=O)NCNC(=O)c1ccc(-c2ccc(C)c(C(=O)O)c2)o1)[C@@H](CC)N(O)C=O` showed an IC50 [1] of under 200 nM, an IC50 [2] of under 126 nM and an IC50 (Tolloid-like protein 1) of under 398 nM. For the same molecule, the IC50 (Tolloid-like protein 2) was under 794 nM.
In the case of `CCCCC[C@@H](C(=O)NCNC(=O)c1ccc(-c2cncc(C(=O)O)c2)o1)[C@@H](CC)N(O)C=O`, the IC50 [1] is reported as under 200 nM, the IC50 [2] is reported as under 126 nM and the IC50 (Tolloid-like protein 1) is reported as under 398 nM. It also gave an IC50 (Tolloid-like protein 2) of under 794 nM.
`CCCCC[C@@H](C(=O)NCNC(=O)c1ccc(-c2cccc(OCCC)c2)o1)[C@@H](CC)N(O)C=O` gave an IC50 [1] of under 200 nM, an IC50 [2] of under 126 nM and an IC50 (Tolloid-like protein 1) of under 398 nM. For the same molecule, the IC50 (Tolloid-like protein 2) was under 794 nM.
`CCCCC[C@H](CN(O)C=O)C(=O)NCNC(=O)c1ccc(-c2ccc(OC)c(C(=O)O)c2)o1` was tested, and the IC50 [1] was under 200 nM, the IC50 [2] was under 126 nM and the IC50 (Tolloid-like protein 1) was under 398 nM. It also gave an IC50 (Tolloid-like protein 2) of under 794 nM.
`CS(=O)(=O)c1cccc(-c2ccc(C(=O)NCNC(=O)[C@H](CCc3ccccc3)CN(O)C=O)o2)c1` showed an IC50 [1] of under 200 nM, an IC50 [2] of under 126 nM and an IC50 (Tolloid-like protein 1) of under 398 nM. It also gave an IC50 (Tolloid-like protein 2) of under 794 nM.
Molecule `CCCCC[C@H](CN(O)C=O)C(=O)NCNC(=O)c1ccc(-c2ccc(C#N)cc2)o1` has an IC50 [1] of under 200 nM, an IC50 [2] of under 126 nM and an IC50 (Tolloid-like protein 1) of under 398 nM. The IC50 (Tolloid-like protein 2) was under 794 nM.
`CCCCC[C@@H](C(=O)NCNC(=O)c1ccc(-c2cc(OCC)cc(P(=O)(O)O)c2)o1)[C@@H](CC)N(O)C=O.NC(CO)(CO)CO` gave a pIC50 [2] of over 6.9.
For `CCCCC[C@H](CN(O)C=O)C(=O)NCNC(=O)c1ccc(-c2ccccc2C(=O)OC)o1`, the IC50 [1] was under 200 nM, the IC50 [2] was under 126 nM and the IC50 (Tolloid-like protein 1) was under 398 nM. The IC50 (Tolloid-like protein 2) was under 794 nM.
